These results are taken from patent publication US20060116427A1, “Adapalene polymorphic forms” (priority 2004, published 2006).

Data set [1] is described as follows: Particle size (mean diameter D[4,3]) by laser light scattering, Malvern Mastersizer MS1. Format: physicochemical. Conditions: product as obtained, not micronised. How it is done: According to present invention, when a particles sample is stated to have mean diameter, referred to as D[4,3], higher than X μm, this means that the mean volume of the particles constituting the sample is higher than the volume of a spherical particle with diameter X.
The particle sizes, i.e. mean diameter values D[4,3], were determined with the known technique of laser light scattering using a Malvern Mastersizer MS1 instrumentation under the following operative conditions: • 300RF mm lens with laser beam length of 2.4 mm; • 100 mg sample dispersed in 100 ml of isopar and 0.5 ml of a 2% solution of lecithin in isopar, with 3 min presonication and 2500 rpm stirring rate.

Data set [2] can be described thus: Stability of the solid form at room temperature. Format: physicochemical.

As for `COc1ccc(-c2ccc3cc(C(=O)O)ccc3c2)cc1C12CC3CC(CC(C3)C1)C2` [adapalene amorphous Form, 6-[3-(1-adamantyl)-4-methoxyphenyl]-2-naphthoic acid], the “mean D[4,3] diameter of particles” value in data set [1] (listed as Adapalene Amorphous Form) was “approx. 15 μm”.

On to `COc1ccc(-c2ccc3cc(C(=O)O)ccc3c2)cc1C12CC3CC(CC(C3)C1)C2` [adapalene crystalline Form α, 6-[3-(1-adamantyl)-4-methoxyphenyl]-2-naphthoic acid], for which the “mean D[4,3] diameter of particles” value in data set [1] (listed as Adapalene Crystalline Form α) is listed as “approx. 15 μm”; in data set [1] (listed as adapalene crystalline Form a), “about 15 μm”. Further, the “stability of the polymorphic form” value in data set [2] is “stable at room temperature”.
